One assay concerns TNFα. The experiment in a line: Cot Monocyte TNFα Cell Based Assay.
The target of a further assay is Human Cot (Homo sapiens (Human), UniProt P41279). The experiment in a line: High Throughput Cot Biochemical Assay. Conditions: Cot HTRF (TR-FRET) biochemical assay. Background: In TR-FRET formats the signal depends on donor and acceptor labels being close together.
The mark [1] stands for this setting: Homo sapiens, Monocyte, read-out: EC50 TNF, LPS-stimulated human monocytes, TNFα.

Molecules are shown by their SMILES. Where two headings read alike, the source gives them in different places.

Sequence of Human Cot (P41279 30-397): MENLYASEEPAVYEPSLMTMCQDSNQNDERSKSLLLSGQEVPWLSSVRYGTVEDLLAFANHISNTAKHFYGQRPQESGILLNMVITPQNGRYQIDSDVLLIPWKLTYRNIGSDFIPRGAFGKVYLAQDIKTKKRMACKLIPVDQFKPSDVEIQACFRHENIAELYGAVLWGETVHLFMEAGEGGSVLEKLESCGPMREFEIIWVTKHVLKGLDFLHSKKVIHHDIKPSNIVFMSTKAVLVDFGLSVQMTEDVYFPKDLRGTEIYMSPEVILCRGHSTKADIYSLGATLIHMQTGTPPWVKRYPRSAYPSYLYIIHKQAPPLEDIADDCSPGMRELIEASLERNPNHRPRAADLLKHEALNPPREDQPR

On to `COc1ccc([C@H](Nc2cc(Cl)c3ncc(C#N)c(NCC(C)(C)C)c3c2)c2cn(C3(C(F)F)CC3)nn2)c(C)n1` [Example 729, (S)-8-chloro-6-(((1-(1-(difluoromethyl)cyclopropyl)-1H-1,2,3-triazol-4-yl)(6-methoxy-2-methylpyridin-3-yl)methyl)amino)-4-(neopentylamino)quinoline-3-carbonitrile], for which, in the assay with TNFα (setting [1]), the EC50 – broadly, the concentration that produces a half-maximal response – worked out at 108 nM. Besides, at Human Cot (IC50 HTRF), the IC50 (commonly the point on the concentration scale where inhibition reaches its midpoint) is 5 nM.
Turning to `Cn1ccc2c([C@H](Nc3cc(Cl)c4ncc(C#N)c(NCC5(C(F)(F)F)CCC5)c4c3)c3cn(C4(C(F)F)CC4)nn3)cccc2c1=O` [Example 730, (S)-8-chloro-6-(((1-(1-(difluoromethyl)cyclopropyl)-1H-1,2,3-triazol-4-yl)(2-methyl-1-oxo-1,2-dihydroisoquinolin-5-yl)methyl)amino)-4-(((1-(trifluoromethyl)cyclobutyl)methyl)-amino)quinoline-3-carbonitrile], the EC50 in the assay with TNFα (setting [1]) came out at 89 nM. This compound showed an IC50 against Human Cot (IC50 HTRF) of 10 nM.
On the same counts, the results for `Cc1nc(F)ccc1[C@H](Nc1cc(Cl)c2ncc(C#N)c(NCC3(C(F)(F)F)CCC3)c2c1)c1cn(C2(C(F)F)CC2)nn1` [Example 731, (S)-8-chloro-6-(((1-(1-(difluoromethyl)cyclopropyl)-1H-1,2,3-triazol-4-yl)(6-fluoro-2-methylpyridin-3-yl)methyl)amino)-4-(((1-(trifluoromethyl)cyclobutyl)-methyl)amino)quinoline-3-carbonitrile] are 179 nM and 11 nM.
On the same counts, the results for `Cc1c([C@H](Nc2cc(Cl)c3ncc(C#N)c(NCC(C)(C)C)c3c2)c2cn(C3(C(F)F)CC3)nn2)ccc(=O)n1C` [Example 732, (S)-8-chloro-6-(((1-(1-(difluoromethyl)cyclopropyl)-1H-1,2,3-triazol-4-yl)(1,2-dimethyl-6-oxo-1,6-dihydropyridin-3-yl)methyl)amino)-4-(neopentylamino)quinoline-3-carbonitrile] are 779 nM and 11 nM.
The like results for `Cc1nc(F)ccc1[C@H](Nc1cc(Cl)c2ncc(C#N)c(NCC3C(C)(C)C3(C)C)c2c1)c1cn(C2(C(F)F)CC2)nn1` [Example 733, (S)-8-chloro-6-(((1-(1-(difluoromethyl)cyclopropyl)-1H-1,2,3-triazol-4-yl)(6-fluoro-2-methylpyridin-3-yl)methyl)amino)-4-(((2,2,3,3-tetramethylcyclopropyl)methyl)-amino)quinoline-3-carbonitrile] were, in that order, 835 nM and 42 nM.
On to `CC(C)(C)CNc1c(C#N)cnc2c(Cl)cc(N[C@H](c3cn(C4(C(F)(F)F)CC4)nn3)c3cccc4nccnc34)cc12` [Example 734, (S)-8-chloro-4-(neopentylamino)-6-((quinoxalin-5-yl(1-(1-(trifluoromethyl)-cyclopropyl)-1H-1,2,3-triazol-4-yl)methyl)amino)quinoline-3-carbonitrile], for which the EC50 in the assay on TNFα (setting [1]) stood at 313 nM. In addition, the IC50 at Human Cot (IC50 HTRF) is 41 nM.
The like results for `Cn1ccc2c([C@H](Nc3cc(Cl)c4ncc(C#N)c(NCC(C)(C)C)c4c3)c3cn(C45CC(C4)C5)nn3)cccc21` [Example 735, (S)-6-(((1-(bicyclo[1.1.1]pentan-1-yl)-1H-1,2,3-triazol-4-yl)(1-methyl-1H-indol-4-yl)methyl)amino)-8-chloro-4-(neopentylamino)quinoline-3-carbonitrile] were, in that order, 478 nM and 47 nM.
Consider `Cn1ccc2c([C@H](Nc3cc(Cl)c4ncc(C#N)c(NCC(C)(C)C)c4c3)c3cn(C4(C(F)F)CC4)nn3)cccc21` [Example 736, (S)-8-chloro-6-(((1-(1-(difluoromethyl)cyclopropyl)-1H-1,2,3-triazol-4-yl)(1-methyl-1H-indol-4-yl)methyl)amino)-4-(neopentylamino)quinoline-3-carbonitrile], for which the EC50 with TNFα (setting [1]) was 645 nM. For the same compound, on Human Cot (IC50 HTRF), the IC50 was 117 nM.
The like results for `CN1Cc2c(cccc2[C@H](Nc2cc(Cl)c3ncc(C#N)c(NCC(C)(C)C)c3c2)c2cn(C3(C(F)F)CC3)nn2)C1=O` [Example 737, (S)-8-chloro-6-(((1-(1-(difluoromethyl)cyclopropyl)-1H-1,2,3-triazol-4-yl)(2-methyl-1-oxoisoindolin-4-yl)methyl)amino)-4-(neopentylamino)quinoline-3-carbonitrile] were, in that order, 91 nM and 3 nM.
The like results for `CC(C)(C)CNc1c(C#N)cnc2c(Cl)cc(N[C@H](c3cn(C4CC4)nn3)c3csc4cnccc34)cc12` [Example 738, (S)-8-chloro-6-(((1-cyclopropyl-1H-1,2,3-triazol-4-yl)(thieno[2,3-c]pyridin-3-yl)methyl)amino)-4-(neopentylamino)quinoline-3-carbonitrile] were, in that order, 40 nM and 2 nM.
The like results for `Cc1nc(F)ccc1[C@H](Nc1cc(Cl)c2ncc(C#N)c(NCC34CC(C3)C4)c2c1)c1cn(C2(C(F)F)CC2)nn1` [Example 739, (S)-4-((bicyclo[1.1.1]pentan-1-ylmethyl)amino)-8-chloro-6-(((1-(1-(difluoromethyl)cyclopropyl)-1H-1,2,3-triazol-4-yl)(6-fluoro-2-methylpyridin-3-yl)methyl)amino)quinoline-3-carbonitrile] were, in that order, 254 nM and 21 nM.
With `Cc1nc(F)ccc1[C@H](Nc1cc(Cl)c2ncc(C#N)c(NCC34CC(C3)C4)c2c1)c1cn(C2(C(F)(F)F)CC2)nn1` [Example 740, (S)-4-((bicyclo[1.1.1]pentan-1-ylmethyl)amino)-8-chloro-6-(((6-fluoro-2-methylpyridin-3-yl)(1-(1-(trifluoromethyl)cyclopropyl)-1H-1,2,3-triazol-4-yl)methyl)amino)quinoline-3-carbonitrile], the EC50 in the assay with TNFα (setting [1]) came out at 311 nM. The IC50 on Human Cot (IC50 HTRF) came out at 45 nM.
The like results for `CC(C)(C)CNc1c(C#N)cnc2c(Cl)cc(N[C@H](c3cn(C4(C(F)(F)F)CC4)nn3)c3csc4cnccc34)cc12` [Example 741, (S)-8-chloro-4-(neopentylamino)-6-((thieno[2,3-c]pyridin-3-yl(1-(1-(trifluoromethyl)cyclopropyl)-1H-1,2,3-triazol-4-yl)methyl)amino)quinoline-3-carbonitrile] were, in that order, 120 nM and 6 nM.
Take `Cc1nc(F)ccc1[C@H](Nc1cc(Cl)c2ncc(C#N)c(Nc3cnc(F)c(F)c3)c2c1)c1cn(C2(C(F)F)CC2)nn1` [Example 742, (S)-8-chloro-6-(((1-(1-(difluoromethyl)cyclopropyl)-1H-1,2,3-triazol-4-yl)(6-fluoro-2-methylpyridin-3-yl)methyl)amino)-4-((5,6-difluoropyridin-3-yl)amino)quinoline-3-carbonitrile]: in the assay on TNFα (setting [1]), the EC50 worked out at 199 nM. For the same compound, the IC50 against Human Cot (IC50 HTRF) turned out to be 17 nM.
Turning to `CC(C)(C)CNc1c(C#N)cnc2c(Cl)cc(N[C@H](c3cn(C4(C(F)F)CC4)nn3)c3cccc4c(=O)n(CC(F)F)ccc34)cc12` [Example 743, (S)-8-chloro-6-(((2-(2,2-difluoroethyl)-1-oxo-1,2-dihydroisoquinolin-5-yl)(1-(1-(difluoromethyl)cyclopropyl)-1H-1,2,3-triazol-4-yl)methyl)amino)-4-(neopentylamino)quinoline-3-carbonitrile], the EC50 in the assay with TNFα (setting [1]) was 116 nM. Further, the IC50 against Human Cot (IC50 HTRF) stood at 5 nM.
On to `Cn1ccc2c([C@H](Nc3cc(Cl)c4ncc(C#N)c(NCC(C)(C)C)c4c3)c3cn(C4(C(F)F)CC4)nn3)cccc2c1=O` [Example 744, (S)-8-chloro-6-(((1-(1-(difluoromethyl)cyclopropyl)-1H-1,2,3-triazol-4-yl)(2-methyl-1-oxo-1,2-dihydroisoquinolin-5-yl)methyl)amino)-4-(neopentylamino)quinoline-3-carbonitrile], for which the EC50 in the assay on TNFα (setting [1]) came out at 33 nM. Also, at Human Cot (IC50 HTRF), the IC50 turned out to be 3 nM.
Turning to `Cn1ccc2c([C@H](Nc3cc(Cl)c4ncc(C#N)c(NCC(C)(C)C)c4c3)c3cn(C4CC4)nn3)cccc2c1=O` [Example 745, (S)-8-chloro-6-(((1-cyclopropyl-1H-1,2,3-triazol-4-yl)(2-methyl-1-oxo-1,2-dihydroisoquinolin-5-yl)methyl)amino)-4-(neopentylamino)quinoline-3-carbonitrile], the EC50 in the assay on TNFα (setting [1]) came to 28 nM. On Human Cot (IC50 HTRF), this compound registered an IC50 of 2 nM.
Regarding `Cn1ccc2c([C@H](Nc3cc(Cl)c4ncc(C#N)c(NCC(C)(C)C)c4c3)c3cn(C(C)(C)C)nn3)cccc2c1=O` [Example 747, (S)-6-(((1-(tert-butyl)-1H-1,2,3-triazol-4-yl)(2-methyl-1-oxo-1,2-dihydroisoquinolin-5-yl)methyl)amino)-8-chloro-4-(neopentylamino)quinoline-3-carbonitrile], the EC50 with TNFα (setting [1]) was determined as 36 nM. Also, inhibition on Human Cot (IC50 HTRF) was half-maximal at 4 nM (IC50).
On to `CCC(F)(F)Cn1cc([C@@H](Nc2cc(Cl)c3ncc(C#N)c(NCC(C)(C)C)c3c2)c2ccc(F)nc2C)nn1` [Example 750, (S)-8-chloro-6-(((1-(2,2-ifluorobutyl)-1H-1,2,3-triazol-4-yl)(6-fluoro-2-methylpyridin-3-yl)methyl)amino)-4-(neopentylamino)quinoline-3-carbonitrile], for which the EC50 in the assay on TNFα (read-out: EC50 TNF, LPS-stimulated human monocytes, TNFα) came to 194 nM. On Human Cot (read-out: IC50 HTRF), the IC50 came to 11 nM.
On to `Cc1nc(F)ccc1[C@H](Nc1cc(Cl)c2ncc(C#N)c(NCC(C)(C)C)c2c1)c1cn(CC2(C(F)F)CC2)nn1` [Example 752, (S)-8-chloro-6-(((1-((1-(difluoromethyl)cyclopropyl)-methyl)-1H-1,2,3-triazol-4-yl)(6-fluoro-2-methylpyridin-3-yl)methyl)amino)-4-(neopentylamino)quinoline-3-carbonitrile], for which the EC50 in the assay on TNFα (setting [1]) worked out at 57 nM. The compound further returned an IC50 against Human Cot (IC50 HTRF) of 5 nM.
On the same counts, the results for `CCC1(n2cc([C@@H](Nc3cc(Cl)c4ncc(C#N)c(NCC(C)(C)C)c4c3)c3ccc(F)nc3C)nn2)CC1` [Example 754, (S)-8-chloro-6-(((1-(1-ethylcyclopropyl)-1H-1,2,3-triazol-4-yl)(6-fluoro-2-methylpyridin-3-yl)methyl)amino)-4-(neopentylamino)quinoline-3-carbonitrile] are 31 nM and 3 nM.

The values are drawn from patent US11066414B2, “Cot modulators and methods of use thereof” (Gilead Sciences, Inc., priority 2015, dated 2021).
